{"source": "patent US20250360111A1", "about": "“COMPOSITIONS OF AGPAT4 INHIBITORS AND METHODS OF USING THEREOF TO TREAT CANCER” (The University of Hong Kong, priority 2024, published 2025)", "key": {"[1]": {"target": "T1, Purified human AGPAT4 protein (Homo sapiens, UniProt Q9NRZ5)", "T1 construct": "The open reading frame (ORF) encoding the mRNA of AGPAT4 was cloned into pGEX-4T1; made in house; host or cells: Escherichia coli BL21", "T1 sequence (Q9NRZ5 1-378)": "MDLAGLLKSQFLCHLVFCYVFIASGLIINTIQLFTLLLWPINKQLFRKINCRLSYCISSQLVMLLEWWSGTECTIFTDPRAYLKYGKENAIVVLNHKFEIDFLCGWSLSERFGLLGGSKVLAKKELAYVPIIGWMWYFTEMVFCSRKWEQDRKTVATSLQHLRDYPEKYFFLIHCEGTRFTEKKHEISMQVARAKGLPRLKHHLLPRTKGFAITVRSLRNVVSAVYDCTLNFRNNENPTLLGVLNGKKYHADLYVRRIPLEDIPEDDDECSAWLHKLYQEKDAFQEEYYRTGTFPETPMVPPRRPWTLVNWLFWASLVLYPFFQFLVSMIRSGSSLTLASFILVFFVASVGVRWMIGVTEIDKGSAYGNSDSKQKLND", "assay": "In vitro binding to AGPAT4 by gel-based ABPP (competition with IA-rhodamine)", "details": "loss of IA-rhodamine fluorescence", "description": "Purified human AGPAT4 protein (0.1 μg) was incubated with library compounds at 25 μM (unless indicated) for 1 h at room temperature, followed by incubation with IA-rhodamine (1 μM) for 1 h. Sampling buffer was added and the samples were denatured by boiling at 90° C. The samples were resolved by SDS-PAG E and fluorescence signals were captured using ChemiDoc MP (Bio-Rad) before silver staining to assess protein loading. The band fluorescence intensity was quantified using the ImageJ software."}, "[2]": {"target": "T2, AGPAT4 (Homo sapiens, UniProt Q9NRZ5)", "T2 construct": "The open reading frame (ORF) encoding the mRNA of AGPAT4 was cloned into the pDONR-221 donor vector; expressed in transfected cells; host or cells: Huh7", "T2 sequence (Q9NRZ5 1-378)": "T1 sequence (Q9NRZ5 1-378)", "assay": "Competitive gel-based ABPP in live cells with CL26-alkyne probe", "type": "cell-based", "details": "Huh7 cells stably expressing FLAG-AGPAT4", "description": "(§1) An in-gel fluorescence assay was performed to investigate the protein targets of CL26. Huh7 cells overexpressing AGPAT4 or cysteine mutants were pre-treated with CL26 at the indicated concentrations for 2 h, followed by CL26-alkyne (1 μM) treatment for another 2 h. Cells were harvested in RIPA buffer supplemented with protease and phosphatase inhibitors (Thermo Fisher Scientific #A32961). The proteins were precipitated by incubation with 6× volume of pre-chilled acetone at −20° C. overnight. Proteins were pelleted by centrifugation at 5000 g for 10 min and resuspended in PBS. The protein content was measured using the BCA assay and normalized to 2 mg/mL. Cell lysates (50 μL) were labelled with azide-fluor 545 by click reaction (final reaction mixture: azide-fluor 545 (25 μM), copper(II) sulfate (1 mM), TBTA (100 μM), and freshly prepared TCEP (1 mM)) at room temperature with constant agitation. After incubation for 1 h, the reaction was quenched with the sampling buffer and boiled at 90° C. for 5 min. Samples were subjected to SDS-PAGE, in-gel fluorescence was captured using ChemiDoc MP (Bio-Rad), and Coomassie Blue staining was performed. Similarly, immunoblotting was used to investigate the protein targets of CL26. Huh7 cells stably transfected with FLAG-AGPAT4 were pre-treated with either the solvent control or CL26 at the indicated concentrations for 2 h, followed by CL26-alkyne (10 μM) treatment for another 2 h. Cells were harvested, and lysates were prepared as described above unless specified. Anti-FLAG M 2 affinity beads were added in FLAG-tag pull-down experiments. After 4 h of incubation at 4° C., the beads were washed with TBS-T and resuspended in TBS-T. Sampling buffer was added and the samples were boiled for protein elution. The samples were subjected to SDS-PAG E and imaged for fluorescence signals before western blot analysis. In the probe pull-down experiment, 1 mL of lysate was labelled with desthiobiotin (DTB)-azide by a click reaction (final reaction mixture: copper(II) sulfate (1 mM), TBTA (100 μM), DTB-PEG-azide (100 μM), and freshly prepared TCEP (1 mM)). […]"}, "[3]": {"tested_on": "AGPAT4", "assay": "Competitive gel-based ABPP in live cells with CL26-alkyne probe", "type": "cell-based, human", "details": "Huh7 cells, empty vector vs FLAG-AGPAT4; silver staining of enriched proteins", "description": "as §1"}, "[4]": {"target": "T3, acyltransferase activity of AGPAT4 (Homo sapiens, UniProt Q9NRZ5)", "T3 construct": "The open reading frame (ORF) encoding the mRNA of AGPAT4 was cloned into the pDONR-221 donor vector; expressed in transfected cells; host or cells: Huh7 (lentiviral pEZ-Lv199-AGPAT4); also sorafenib-resistant HepG2 (endogenous AGPAT4)", "T3 sequence (Q9NRZ5 1-378)": "T1 sequence (Q9NRZ5 1-378)", "assay": "LPA to PA conversion assay", "type": "biochemical", "description": "Enzyme activity was measured by quantifying the conversion of [3H]-LPA to [3H]-PA following the protocol outlined in a previous study (43). Briefly, the enzymatic reaction was prepared by combining 10 μmol/L 18:1 Lyso PA (Avanti Polar Lipids), 50 μmol/L oleoyl CoA (Sigma-Aldrich), 1 μL 1-oleoyl-[oleoyl-9,10^−3H]-LPA (specific activity 30-60 Ci/mmol; PerkinElmer), and 1 mg/mL fatty acid-free BSA in 200 μL 100 mM Tris-HCl buffer at pH 7.4. The reaction was initiated by adding 30 μg of total protein (cell lysate) and incubating the mixture at 37° C. for 10 min. To stop the reaction, 0.5 mL of 1-butanol containing 1 M HCl was added to extract phospholipids to stop the reaction. The butanol extract was then dried under vacuum, and the LPA and PA were separated using a solvent system consisting of chloroform, methanol, acetic acid, and water (25:10:3:1). Radioactive spots were identified by comparing their migration with unlabelled LPA and PA standards and visualized using iodine vapours. The spots corresponding to [3H]-LPA and [3H]-PA were scraped and their radioactivity was measured using a Tri-Carb Liquid Scintillation Counter 4810 (PerkinElmer Life Sciences)."}}, "data": [{"smiles": "O=C(CCl)NCc1ccc(-c2nc3ccccc3s2)o1", "note": "[CL26, N-[[5-(2-benzothiazolyl)-2-furanyl]methyl]-2-chloroacetamide]", "values": [{"measurement": "IC50", "setting": "[1]", "value": 766, "unit": "nM"}, {"measurement": "in-gel fluorescence of CL26-alkyne-bound AGPAT4 upon CL26 pre-treatment (target engagement)", "setting": "[2]", "value": "significant decrease in fluorescence intensity"}, {"measurement": "off-target binding", "setting": "[3]", "value": "minimal off-target binding"}, {"measurement": "inhibition of acyltransferase activity (LPA to PA conversion)", "setting": "[4]; Huh7 cells overexpressing AGPAT4 and sorafenib-resistant HepG2 cells", "value": "inhibition of acyltransferase activity of AGPAT4 in vitro was verified"}, {"measurement": "inhibition of acyltransferase activity (PA conversion assay) in tumors", "setting": "[4]; sorafenib-resistant HCC PDX model #2", "value": "inhibitory effect of CL26 on acyltransferase activity in sorafenib-resistant PDX was confirmed"}]}]}
